In this test the test system is immunoglobulin light chain protein WIL-FL T46L. The test is described as follows: Differential scanning fluorimetry (thermal shift) assay. The class given is binding. To be noted: Table A; temperature shift [Tm]compound-[Tm]vehicle; recombinant WIL-FL T46L.

With `Cc1cc(N2CC[C@](C)(c3ccccc3)C2)cn2nc(C34COC(C3)C4C(N)=O)nc12` (some centres unmarked) [Compound 69], the DSF result is “**** (>1.5-2.5° C.=****)”.

As for `Cc1cnc(C2C3COC2(c2nc4c(C)cc(N5CC[C@](C)(c6ccccc6)C5)cn4n2)C3)[nH]1` (some centres unmarked) [Compound 70], the DSF result is recorded as “***** (>2.5° C.=*****)”.

For `Cc1cc(N2CC[C@](C)(c3ccccc3)C2)cn2nc(C34CC(CO3)C4C(=O)NCC(C)(C)O)nc12` (some centres unmarked) [Compound 71], the DSF entry is on record as “***** (>2.5° C.=*****)”.

With `Cc1cc(N2CC[C@](C)(c3ccccc3)C2)cn2nc(C34CC(CO3)C4C(C)(C)O)nc12` (some centres unmarked) [Compound 73], the DSF result is on record as “***** (>2.5° C.=*****)”.

Take `Cc1n[nH]c(C2C3COC2(c2nc4c(C)cc(N5CC[C@](C)(c6ccccc6)C5)cn4n2)C3)n1` (some centres unmarked) [Compound 74]: the DSF entry is “***** (>2.5° C.=*****)”.

With `Cc1nnc(C2C3COC2(c2nc4c(C)cc(N5CC[C@](C)(c6ccccc6)C5)cn4n2)C3)o1` (some centres unmarked) [Compound 75], the DSF result was “***** (>2.5° C.=*****)”.

Regarding `Cc1cc(N2CC[C@](C)(c3ccccc3)C2)cn2nc(C34CC(CO3)C4c3nn[nH]n3)nc12` (some centres unmarked) [Compound 76], the DSF result was “***** (>2.5° C.=*****)”.

With `Cc1cc(N2CC[C@](C)(c3ccccc3)C2)cn2nc(C34CC(CO3)C4N3CC4(CC4)NC3=O)nc12` (some centres unmarked) [Compound 78], the DSF result is on record as “***** (>2.5° C.=*****)”.

`Cc1cc(N2CC[C@](C)(c3ccccc3)C2)cn2nc(C34CC(CO3)C4N3C(=O)NC(=O)C3(C)C)nc12` (some centres unmarked) [Compound 79]: the DSF entry is “***** (>2.5° C.=*****)”.

As for `Cc1cc(N2CC[C@](C)(c3ccccc3)C2)cn2nc(C34CC(CO3)C4CN)nc12` (some centres unmarked) [Compound 80], the DSF entry is recorded as “***** (>2.5° C.=*****)”.

On to `CCC(=O)NCC1C2COC1(c1nc3c(C)cc(N4CC[C@](C)(c5ccccc5)C4)cn3n1)C2` (some centres unmarked) [Compound 81], for which the DSF entry is recorded as “***** (>2.5° C.=*****)”.

`Cc1cc(N2CC[C@](C)(c3ccccc3)C2)cn2nc(C34CC(CO3)C4Cn3ncnc3C)nc12` (some centres unmarked) [Compound 82]: the DSF result is “***** (>2.5° C.=*****)”.

Turning to `Cc1ncn(CC2C3COC2(c2nc4c(C)cc(N5CC[C@](C)(c6ccccc6)C5)cn4n2)C3)n1` (some centres unmarked) [Compound 83], the DSF entry is “**** (>1.5-2.5° C.=****)”.

With `Cc1cc(N2CC[C@](C)(c3ccccc3)C2)cn2nc(C34CC(CO3)C4CN3CCNC(=O)C3)nc12` (some centres unmarked) [Compound 84], the DSF entry is on record as “***** (>2.5° C.=*****)”.

With `Cc1cc(N2CC[C@](C)(c3ccccc3)C2)cn2nc(C34CC(CO3)C4CC(N)=O)nc12` (some centres unmarked) [Compound 85], the DSF entry is reported as “***** (>2.5° C.=*****)”.

Regarding `Cc1cc(N2CC[C@](C)(c3ccccc3)C2)cn2nc(C34CC(CO3)C4Cc3ncnn3C)nc12` (some centres unmarked) [Compound 86], the DSF entry is on record as “***** (>2.5° C.=*****)”.

For `Cc1nn(CC2C3COC2(c2nc4c(C)cc(N5CC[C@](C)(c6ccccc6)C5)cn4n2)C3)c(=O)[nH]1` (some centres unmarked) [Compound 87], the DSF entry is “***** (>2.5° C.=*****)”.

With `Cc1cc(N2CC[C@](C)(c3ccccc3)C2)cn2nc(C34CC(CO3)C4Cn3cn[nH]c3=O)nc12` (some centres unmarked) [Compound 88], the DSF entry is listed as “***** (>2.5° C.=*****)”.

With `Cc1cc(N2CC[C@](C)(c3ccccc3)C2)cn2nc(C34CC(CO3)C4Cn3cnn(C)c3=O)nc12` (some centres unmarked) [Compound 89], the DSF result was “***** (>2.5° C.=*****)”.

Turning to `Cc1cc(N2CC[C@](C)(c3ccccc3)C2)cn2nc(C34CC(CO3)C4Cn3cnc(C(N)=O)n3)nc12` (some centres unmarked) [Compound 90], the DSF result is recorded as “**** (>1.5-2.5° C.=****)”.

For `Cc1cc(N2CC[C@](C)(c3ccccc3)C2)cn2nc(C34CC(CO3)C4Cn3cc(C(=O)O)nn3)nc12` (some centres unmarked) [Compound 91], the DSF entry is recorded as “***** (>2.5° C.=*****)”.

For the molecule `Cc1cc(N2CC[C@](C)(c3ccccc3)C2)cn2nc(C34CC(CO3)C4Cn3cc(C(N)=O)nn3)nc12` (some centres unmarked) [Compound 92], the DSF entry is recorded as “***** (>2.5° C.=*****)”.

Take `CCS(=O)(=O)Nc1n[nH]c(C2C3COC2(c2nc4c(C)cc(N5CC[C@](C)(c6ccccc6)C5)cn4n2)C3)n1` (some centres unmarked) [Compound 93]: the DSF result is given as “***** (>2.5° C.=*****)”.

As for `Cc1ncn(CC23CC(C(=O)O)(C2)C(c2nc4c(C)cc(N5CC[C@](C)(c6ccccc6)C5)cn4n2)O3)n1` (some centres unmarked) [Compound 94], the DSF result is reported as “***** (>2.5° C.=*****)”.

Turning to `Cc1ncn(CC23CC(C(N)=O)(C2)C(c2nc4c(C)cc(N5CC[C@](C)(c6ccccc6)C5)cn4n2)O3)n1` (some centres unmarked) [Compound 95], the DSF result is on record as “***** (>2.5° C.=*****)”.

Consider `Cc1cc(OCC2(c3ccccc3)CC2)cn2nc(C34CC(CO3)C4N)nc12` (centres unmarked) [Compound 96], for which the DSF result is on record as “**** (>1.5-2.5° C.=****)”.

Take `Cc1cc(OC[C@H](C)c2ccccc2)cn2nc(C34CC(CO3)C4N)nc12` (some centres unmarked) [Compound 98]: the DSF result is reported as “*** (>1-1.5° C.=***)”.

Consider `Cc1cc(N2CCC(C)(c3nccs3)C2)cn2nc(C(=O)N3CC[C@@]4(CCN(c5cccc(C(=O)O)n5)C4)C3)nc12` (some centres unmarked) [Compound 99], for which the DSF result is on record as “**** (>1.5-2.5° C.=****)”.

Take `Cc1cc(N2CC[C@](C)(c3ccccc3)C2)cn2nc(C(=O)NCC(C)(C)O)nc12` [Compound 100]: the DSF result is given as “***** (>2.5° C.=*****)”.

In the case of `Cc1cc(N2CC[C@](C)(c3ccccc3)C2)cn2nc(C(=O)NC3CCNC3)nc12` (some centres unmarked) [Compound 101], the DSF entry was “***** (>2.5° C.=*****)”.

In the case of `Cc1cc(N2CC[C@](C)(c3ccccc3)C2)cn2nc(C(=O)N[C@@H]3CCNC3)nc12` [Compound 102], the DSF result was “***** (>2.5° C.=*****)”.

Take `Cc1cc(N2CC[C@](C)(c3ccccc3)C2)cn2nc(C(=O)N(C)[C@H]3CCNC3)nc12` [Compound 103]: the DSF entry was “***** (>2.5° C.=*****)”.

Consider `Cc1cc(N2CC[C@](C)(c3ccccc3)C2)cn2nc(C(=O)NC3CCC(O)(C(F)(F)F)C3)nc12` (some centres unmarked) [Compound 104], for which the DSF entry was “***** (>2.5° C.=*****)”.

On to `Cc1cc(N2CC[C@](C)(c3ccccc3)C2)cn2nc(C(=O)N[C@H]3CC[C@H](O)C3)nc12` [Compound 105], for which the DSF entry was “***** (>2.5° C.=*****)”.

As for `Cc1cc(N2CC[C@](C)(c3ccccc3)C2)cn2nc(C(=O)NCC3(O)COC3)nc12` [Compound 106], the DSF entry is listed as “***** (>2.5° C.=*****)”.

Regarding `COC(C)(C)CNC(=O)c1nc2c(C)cc(N3CC[C@](C)(c4ccccc4)C3)cn2n1` [Compound 107], the DSF result is “***** (>2.5° C.=*****)”.

As to `CCC(=O)N1CC(O)C(NC(=O)c2nc3c(C)cc(N4CC[C@](C)(c5ccccc5)C4)cn3n2)C1` (some centres unmarked) [Compound 108], the DSF entry is given as “***** (>2.5° C.=*****)”.

On to `Cc1cc(N2CC[C@](C)(c3ccccc3)C2)cn2nc(C(=O)NC3CCS(=O)(=O)C3)nc12` (some centres unmarked) [Compound 109], for which the DSF entry is reported as “***** (>2.5° C.=*****)”.

As for `Cc1cc(N2CC[C@](C)(c3ccccc3)C2)cn2nc(C(=O)NC3CN(CC(=O)O)CC3O)nc12` (some centres unmarked) [Compound 110], the DSF entry is recorded as “***** (>2.5° C.=*****)”.

Take `Cc1cc(N2CC[C@](C)(c3ccccc3)C2)cn2nc(C(=O)NC34CCC(O)(C3)C4)nc12` [Compound 111]: the DSF result is given as “***** (>2.5° C.=*****)”.

For `Cc1cc(N2CC[C@](C)(c3ccccc3)C2)cn2nc(C(=O)NC3CC4(C3)CC(C(=O)O)C4)nc12` (some centres unmarked) [Compound 112], the DSF result is “***** (>2.5° C.=*****)”.

With `Cc1cc(N2CC[C@](C)(c3ccccc3)C2)cn2nc(C(=O)N3CCC4(COC4)C3)nc12` [Compound 113], the DSF result is “***** (>2.5° C.=*****)”.

Turning to `Cc1cc(N2CC[C@](C)(c3ccccc3)C2)cn2nc(C(=O)N(C)[C@@H]3CCNC3)nc12` [Compound 114], the DSF result is recorded as “***** (>2.5° C.=*****)”.

As to `Cc1cc(N2CC[C@](C)(c3ccccc3)C2)cn2nc(C(=O)N3C[C@@H](O)[C@@H](O)C3)nc12` [Compound 115], the DSF result is listed as “***** (>2.5° C.=*****)”.

`Cc1cc(N2CC[C@](C)(c3ccccc3)C2)cn2nc(C(=O)NCC3(O)CCOCC3)nc12` [Compound 116]: the DSF result is “***** (>2.5° C.=*****)”.

In the case of `Cc1cc(N2CC[C@](C)(c3ccccc3)C2)cn2nc(C(=O)NC3CNCC3O)nc12` (some centres unmarked) [Compound 117], the DSF result was “***** (>2.5° C.=*****)”.

With `Cc1cc(N2CC[C@](C)(c3ccccc3)C2)cn2nc(C(=O)NC3CCOC3)nc12` (some centres unmarked) [Compound 118], the DSF entry is reported as “***** (>2.5° C.=*****)”.

With `Cc1cc(N2CC[C@](C)(c3ccccc3)C2)cn2nc(C(=O)NCCN3C[C@H](O)[C@@H](O)C3)nc12` [Compound 119], the DSF entry is “***** (>2.5° C.=*****)”.

Consider `Cc1cc(N2CC[C@](C)(c3ccccc3)C2)cn2nc(C(=O)NCC3(O)CC3)nc12` [Compound 120], for which the DSF entry is “***** (>2.5° C.=*****)”.

In the case of `Cc1cc(N2CC[C@](C)(c3ccccc3)C2)cn2nc(C(=O)N[C@H]3COC[C@@H]3F)nc12` [Compound 121], the DSF entry is on record as “***** (>2.5° C.=*****)”.

For `Cc1cc(N2CC[C@](C)(c3ccccc3)C2)cn2nc(C(=O)NCC34COC(C3)C4)nc12` [Compound 122], the DSF entry is on record as “***** (>2.5° C.=*****)”.

In the case of `Cc1cc(N2CC[C@](C)(c3ccccc3)C2)cn2nc(C(=O)NC34COC(C(C)(C)O)(C3)C4)nc12` [Compound 123], the DSF entry was “***** (>2.5° C.=*****)”.

Turning to `Cc1cc(N2CC[C@](C)(c3ccccc3)C2)cn2nc(C(=O)N3CC4CC3CO4)nc12` (some centres unmarked) [Compound 124], the DSF entry was “***** (>2.5° C.=*****)”.

In the case of `COC(=O)[C@]1(C)CCN(C(=O)c2nc3c(C)cc(N4CC[C@](C)(c5ccccc5)C4)cn3n2)C1` [Compound 125], the DSF entry is on record as “***** (>2.5° C.=*****)”.

As to `Cc1cc(N2CC[C@](C)(c3ccccc3)C2)cn2nc(C(=O)N3CC[C@@](C)(C(=O)O)C3)nc12` [Compound 126], the DSF result is “***** (>2.5° C.=*****)”.

For `Cc1cc(N2CC[C@](C)(c3ccccc3)C2)cn2nc(C(=O)NC34COC(C#N)(C3)C4)nc12` [Compound 127], the DSF entry is “***** (>2.5° C.=*****)”.

Consider `Cc1cc(N2CC[C@](C)(c3ccccc3)C2)cn2nc(C(=O)N3CC(O)C3)nc12` [Compound 128], for which the DSF result is listed as “***** (>2.5° C.=*****)”.

Regarding `Cc1cc(N2CC[C@](C)(c3ccccc3)C2)cn2nc(C(=O)NC3C4COCC43)nc12` (some centres unmarked) [Compound 129], the DSF result is given as “***** (>2.5° C.=*****)”.

As for `Cc1cc(N2CC[C@](C)(c3ccccc3)C2)cn2nc(C(=O)NCCC(C)(C)O)nc12` [Compound 130], the DSF entry is recorded as “***** (>2.5° C.=*****)”.

For the origin of these results see patent US20260285857A1, “BICYCLIC AND HETEROCYCLIC AMIDE COMPOUNDS” (priority 2024, published 2026).
